Measured values reported in US20100298141A1, “SUBSTITUTED PYRIDINE N-OXIDE HERBICIDES” (E. I. DU PONT DE NEMOURS AND COMPANY, priority 2007, published 2010).

Key:
corn = experiment: Test A pre-/postemergence greenhouse test; assay type: in vivo, Zea mays; details: for Plant response rating, Corn: 0 to 100 scale where 0 is no effect and 100 is complete control; for Corn plant response rating: 0 to 100 scale
How it was run: (§1)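 Sowing in loam/sand; same-day pre (directed soil spray) and post (foliar, 1–2 leaf, 2–10 cm) treatment with surfactant-containing non-phytotoxic solvent formulation; ~10 days in greenhouse; eye-scored injury against untreated plants.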

Surinam grass = experiment: Test C pre-/postemergence test; assay type: in vivo, Brachiaria decumbens; details: for Plant response rating, Surinam Grass: 31 g ai/ha, scale 0 to 100 (0 no effect, 100 complete control)
How it was run: (§2)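 Seeds were planted and treated preemergence with test chemical in a non-phytotoxic solvent mixture containing surfactant. Postemergence applications of the same formulation went onto plants 2 to 18 cm tall (1- to 4-leaf stage). A dash marks no test result.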

crabgrass = experiment: Test C pre-/postemergence test; assay type: in vivo, Digitaria sanguinalis; details: for Plant response rating, Crabgrass, Large: 31 g ai/ha, scale 0 to 100 (0 no effect, 100 complete control)
How it was run: as §2

barnyardgrass = experiment: Test C flooded paddy test; assay type: in vivo, Echinochloa crus-galli; details: Flood
How it was run: (§3)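 Under a constant 3 cm flood, test compounds went directly into the paddy water. Following 13 to 15 days of greenhouse growth, treated species and controls were compared by eye.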

wheat = experiment: Test C pre-/postemergence test; assay type: in vivo, Triticum aestivum; details: for Plant response rating, Wheat: 31 g ai/ha, scale 0 to 100 (0 no effect, 100 complete control)
How it was run: as §2

wild oat = experiment: Test C pre-/postemergence test; assay type: in vivo, Avena fatua; details: for Plant response rating, Oat, Wild: 31 g ai/ha, scale 0 to 100 (0 no effect, 100 complete control)
How it was run: as §2

eastern black nightshade = experiment: Test C pre-/postemergence test; assay type: in vivo, Solanum ptycanthum; details: for Plant response rating, Nightshade: 31 g ai/ha, scale 0 to 100 (0 no effect, 100 complete control)
Text: Seeds of plant species selected from blackgrass (Alopecurus myosuroides), downy brome (Bromus tectorum), green foxtail (Setaria viridis), Italian ryegrass (Lolium multiflorum), wheat (Triticum aestivum), wild oat (Avena fatua), catchweed bedstraw (Galium aparine), Russian thistle (Salsola kali), […] (Cynodon dactylon), Surinam grass (Brachiaria decumbens), cocklebur (Xanthium strumarium), corn (Zea mays), crabgrass (Digitaria sanguinalis), woolly cupgrass (Eriochloa villosa), giant foxtail (Setaria faberii), Goosegrass (Eleusin indica), johnsongrass (Sorghum halepense), kochia (Kochia scoparia), lambsquarters (Chenopodium album), morningglory (Ipomoea coccinea), eastern black nightshade (Solanum ptycanthum), yellow nutsedge (Cyperus esculentus), pigweed (Amaranthus retroflexus), common ragweed (Ambrosia elation), soybean (Glycine max), common (oilseed) sunflower (Helianthus annuus), and velvetleaf (Abutilon theophrasti) were planted and treated preemergence with test chemicals formulated in a non-phytotoxic solvent mixture which included a surfactant. At the same time, plants selected from these crop and weed species and also winter barley (Hordeum vulgare), canarygrass (Phalaris minor), and chickweed (Stellaria media) were treated with postemergence applications of some of the test chemicals formulated in the same manner. Plants ranged in height from 2 to 18 cm (1- to 4-leaf stage) for postemergence treatments. […] At time of treatment, test pots were flooded to 3 cm above the soil surface, treated by application of test compounds directly to the paddy water, and then maintained at that water depth for the duration of the test. […] A dash (-) response means no test result.

pigweed = experiment: Test C pre-/postemergence test; assay type: in vivo, Amaranthus retroflexus; details: for Plant response rating, Pigweed: 31 g ai/ha, scale 0 to 100 (0 no effect, 100 complete control)
How it was run: as §2

bermudagrass = experiment: Test C pre-/postemergence test; assay type: in vivo, Cynodon dactylon; details: for Plant response rating, Bermudagrass: 31 g ai/ha
How it was run: as §2

redroot pigweed = experiment: Test A pre-/postemergence greenhouse test; assay type: in vivo, Amaranthus retroflexus; details: for Plant response rating, Pigweed: 0 to 100 scale where 0 is no effect and 100 is complete control; for Pigweed plant response rating: 0 to 100 scale
How it was run: as §1

velvetleaf = experiment: Test C pre-/postemergence test; assay type: in vivo, Abutilon theophrasti; details: for Plant response rating, Velvetleaf: 31 g ai/ha, scale 0 to 100 (0 no effect, 100 complete control)
How it was run: as §2

rice = experiment: Test C flooded paddy test; assay type: in vivo, Oryza sativa; details: Flood
How it was run: as §3

kochia = experiment: Test C pre-/postemergence test; assay type: in vivo, Kochia scoparia; details: for Plant response rating, Kochia: 31 g ai/ha, scale 0 to 100 (0 no effect, 100 complete control)
How it was run: as §2

[1] = system: common (oilseed) sunflower; experiment: Test C pre-/postemergence test; assay type: in vivo, Helianthus annuus; details: for Plant response rating, Sunflower: 31 g ai/ha, scale 0 to 100 (0 no effect, 100 complete control)
How it was run: as §2

blackgrass = experiment: Test C pre-/postemergence test; assay type: in vivo, Alopecurus myosuroides; details: for Plant response rating, Blackgrass: 31 g ai/ha, scale 0 to 100 (0 no effect, 100 complete control)
How it was run: as §2

duck salad = experiment: Test C flooded paddy test; assay type: in vivo, Heteranthera limosa; details: Flood
How it was run: as §3

[2] = Postemergence, 500 g ai/ha, 0 is no effect, 100 is complete control
[3] = Preemergence, 125 g ai/ha, 0 no effect, 100 complete control
[4] = 62 g ai/ha, Preemergence, scale 0 to 100
[5] = 125 g ai/ha, preemergence, scale 0 (no effect) to 100 (complete control)
[6] = preemergence, 250 g ai/ha, scale 0 (no effect) to 100 (complete control)
[7] = 62 g ai/ha, scale 0 to 100 (0 no effect, 100 complete control)
[8] = 250 g ai/ha, scale 0 to 100, 0 no effect, 100 complete control, 13 to 15 days
[9] = 62 g ai/ha, Preemergence, scale 0 to 100 (0 no effect, 100 complete control)
[10] = Preemergence, scale 0 to 100 (0 no effect, 100 complete control)

Cc1cc([S+]([O-])Cc2c(C(F)(F)F)nn(C)c2OCC(F)(F)F)[n+]([O-])cc1Cl (centres unmarked) [Compound 70]
Plant response rating, Corn (corn; Postemergence, 125 g ai/ha): 50 | Corn plant response rating (corn; [2]): 80 | Corn plant response rating (corn; [3]): 20 | Plant response rating, Corn (corn; Preemergence, 500 g ai/ha): 90 | Surinam Grass plant response rating (Surinam grass; [4]): 85 | Surinam Grass plant response rating (Surinam grass; [5]): 90 | Plant response rating, Surinam Grass (Surinam grass; Preemergence): 65 | Surinam Grass plant response rating (Surinam grass; [6]): 100 | Crabgrass, Large plant response rating (crabgrass; [4]): 100 | Crabgrass, Large plant response rating (crabgrass; [5]): 100 | Plant response rating, Crabgrass, Large (crabgrass; Preemergence): 85 | Crabgrass, Large plant response rating (crabgrass; [6]): 100 | Plant response rating, Barnyardgrass (barnyardgrass; [7]): 0 | Plant response rating, Barnyardgrass (barnyardgrass; [8]): 95 | Wheat plant response rating (wheat; [4]): 60 | Wheat plant response rating (wheat; [5]): 95 | Plant response rating, Wheat (wheat; Preemergence): 15 | Wheat plant response rating (wheat; [6]): 95 | Oat, Wild plant response rating (wild oat; [4]): 95 | Oat, Wild plant response rating (wild oat; [5]): 100 | Plant response rating, Oat, Wild (wild oat; Preemergence): 70 | Oat, Wild plant response rating (wild oat; [6]): 100 | Nightshade plant response rating (eastern black nightshade; [4]): 100 | Nightshade plant response rating (eastern black nightshade; [5]): 100 | Plant response rating, Nightshade (eastern black nightshade; Preemergence): 100 | Nightshade plant response rating (eastern black nightshade; [6]): 100 | Pigweed plant response rating (pigweed; [4]): 100 | Pigweed plant response rating (pigweed; [5]): 100 | Plant response rating, Pigweed (pigweed; Preemergence): 100 | Pigweed plant response rating (pigweed; [6]): 100 | Bermudagrass plant response rating (bermudagrass; [9]): 100 | Bermudagrass plant response rating (bermudagrass; [5]): 100 | Plant response rating, Bermudagrass (bermudagrass; [10]): 100 | Bermudagrass plant response rating (bermudagrass; [6]): 100 | Plant response rating, Pigweed (redroot pigweed; Postemergence, 125 g ai/ha): 40 | Pigweed plant response rating (redroot pigweed; [2]): 80 | Pigweed plant response rating (redroot pigweed; [3]): 90 | Plant response rating, Pigweed (redroot pigweed; Preemergence, 500 g ai/ha): 100 | Velvetleaf plant response rating (velvetleaf; [4]): 85 | Velvetleaf plant response rating (velvetleaf; [5]): 100 | Plant response rating, Velvetleaf (velvetleaf; Preemergence): 35 | Velvetleaf plant response rating (velvetleaf; [6]): 100 | Plant response rating, Rice (rice; [7]): 45 | Plant response rating, Rice (rice; [8]): 90 | Kochia plant response rating (kochia; [4]): 100 | Kochia plant response rating (kochia; [5]): 100 | Plant response rating, Kochia (kochia; Preemergence): 100 | Kochia plant response rating (kochia; [6]): 100 | Sunflower plant response rating [1, 4]: 45 | Sunflower plant response rating [1, 5]: 45 | Plant response rating, Sunflower ([1]; Preemergence): 0 | Sunflower plant response rating [1, 6]: 80 | Blackgrass plant response rating (blackgrass; [4]): 100 | Blackgrass plant response rating (blackgrass; [5]): 100 | Plant response rating, Blackgrass (blackgrass; Preemergence): 100 | Blackgrass plant response rating (blackgrass; [6]): 100 | Plant response rating, Ducksalad (duck salad; [7]): 85 | Plant response rating, Ducksalad (duck salad; [8]): 100

Cn1nc(C(F)(F)F)c(CS(=O)(=O)c2cccc[n+]2[O-])c1OCC(F)F [Compound 81]
Plant response rating, Corn (corn; Postemergence, 125 g ai/ha): 0 | Corn plant response rating (corn; [2]): 50 | Corn plant response rating (corn; [3]): 30 | Plant response rating, Corn (corn; Preemergence, 500 g ai/ha): 70 | Surinam Grass plant response rating (Surinam grass; [4]): 80 | Surinam Grass plant response rating (Surinam grass; [5]): 100 | Plant response rating, Surinam Grass (Surinam grass; Preemergence): 70 | Surinam Grass plant response rating (Surinam grass; [6]): 100 | Crabgrass, Large plant response rating (crabgrass; [4]): 80 | Crabgrass, Large plant response rating (crabgrass; [5]): 98 | Plant response rating, Crabgrass, Large (crabgrass; Preemergence): 60 | Crabgrass, Large plant response rating (crabgrass; [6]): 98 | Plant response rating, Barnyardgrass (barnyardgrass; [7]): 0 | Plant response rating, Barnyardgrass (barnyardgrass; [8]): 0 | Wheat plant response rating (wheat; [4]): 5 | Wheat plant response rating (wheat; [5]): 80 | Plant response rating, Wheat (wheat; Preemergence): 0 | Wheat plant response rating (wheat; [6]): 80 | Oat, Wild plant response rating (wild oat; [4]): 60 | Oat, Wild plant response rating (wild oat; [5]): 95 | Plant response rating, Oat, Wild (wild oat; Preemergence): 0 | Oat, Wild plant response rating (wild oat; [6]): 95 | Nightshade plant response rating (eastern black nightshade; [4]): 70 | Nightshade plant response rating (eastern black nightshade; [5]): 90 | Plant response rating, Nightshade (eastern black nightshade; Preemergence): 0 | Nightshade plant response rating (eastern black nightshade; [6]): 90 | Pigweed plant response rating (pigweed; [4]): 98 | Pigweed plant response rating (pigweed; [5]): 100 | Plant response rating, Pigweed (pigweed; Preemergence): 0 | Pigweed plant response rating (pigweed; [6]): 100 | Bermudagrass plant response rating (bermudagrass; [9]): 100 | Bermudagrass plant response rating (bermudagrass; [5]): 100 | Plant response rating, Bermudagrass (bermudagrass; [10]): 80 | Bermudagrass plant response rating (bermudagrass; [6]): 100 | Plant response rating, Pigweed (redroot pigweed; Postemergence, 125 g ai/ha): 40 | Pigweed plant response rating (redroot pigweed; [2]): 70 | Pigweed plant response rating (redroot pigweed; [3]): 90 | Plant response rating, Pigweed (redroot pigweed; Preemergence, 500 g ai/ha): 100 | Velvetleaf plant response rating (velvetleaf; [4]): 45 | Velvetleaf plant response rating (velvetleaf; [5]): 70 | Plant response rating, Velvetleaf (velvetleaf; Preemergence): 0 | Velvetleaf plant response rating (velvetleaf; [6]): 85 | Plant response rating, Rice (rice; [7]): 0 | Plant response rating, Rice (rice; [8]): 0 | Kochia plant response rating (kochia; [4]): 100 | Kochia plant response rating (kochia; [5]): 100 | Plant response rating, Kochia (kochia; Preemergence): 40 | Kochia plant response rating (kochia; [6]): 100 | Sunflower plant response rating [1, 4]: 0 | Sunflower plant response rating [1, 5]: 50 | Plant response rating, Sunflower ([1]; Preemergence): 0 | Sunflower plant response rating [1, 6]: 75 | Plant response rating, Blackgrass (blackgrass; Preemergence): 50 | Plant response rating, Ducksalad (duck salad; [7]): 65 | Plant response rating, Ducksalad (duck salad; [8]): 75
